Row | SMILES | logP
1 | O=NN(CCCl)C(=O)NCCSC1c2ccccc2Oc2ccccc21 | 5
2 | CCN(CC)CC(=O)NC1c2ccccc2Oc2ccccc21 | 3.49
3 | CCOc1ccc2c(c1)C(NC(=O)N(CCCl)N=O)c1ccccc1O2 (stereo unspecified) | 4.86
4 | CCN(CC)CC(=O)NC1c2ccccc2Sc2c(C)cccc21 (stereo unspecified) | 4.24
5 | Cc1cccc2c1Oc1ncccc1C2NC(=O)CN(C)C (stereo unspecified) | 2.19
6 | Cc1cc(C)c2c(c1)C(NC(=O)N(CCCl)N=O)c1ccccc1O2 (stereo unspecified) | 5.19
7 | Cc1cccc2c1Oc1ccccc1C2NC(=O)CCN(C)C (stereo unspecified) | 2.61

Continued, values first:

Row | logP | SMILES
8 | 4.17 | O=NN(CCCl)C(=O)NC1c2ccccc2Oc2ccccc21
9 | 5.01 | Cc1ccc2c(c1)C(NC(=O)N(CCCl)N=O)c1ccccc1S2 (stereo unspecified)
10 | 4.13 | O=NN(CCCl)C(=O)NCC1c2ccccc2Oc2ccccc21
11 | 5.03 | Cc1cccc2c1Sc1ccccc1C2NC(=O)N(CCCl)N=O (stereo unspecified)
12 | 4.59 | O=NN(CCCl)C(=O)NC1c2ccccc2Sc2ccccc21
13 | 4.65 | Cc1ccc2c(c1)C(NC(=O)N(CCCl)N=O)c1ccccc1O2 (stereo unspecified)
14 | 4.77 | Cc1cccc2c1Oc1ccccc1C2NC(=O)N(CCCl)N=O (stereo unspecified)
15 | 4.48 | COc1ccc2c(c1)C(NC(=O)N(CCCl)N=O)c1ccccc1O2 (stereo unspecified)
16 | 3.68 | COc1cccc2c1Oc1ccccc1C2NC(=O)N(CCCl)N=O (stereo unspecified)
